Patent US20260306644A1, “ANTIBODY RECRUITING MOLECULES FOR THE TREATMENT OF CORONAVIRUS DISEASE-19” (priority 2023, published 2026)
“And” between values parts separate entries of the source, which are not always exact repeats. Equal values may be shown once. Read-outs that look alike come from different tables or passages of the source. Positions of bridges follow the written chain, without caps; N, C: chain ends.

Tests used:
[1] = test system: Spike RBD coated magnetic beads / RAW 264.7 macrophages; assay: Antibody-dependent cellular phagocytosis (ADCP), RAW 264.7 macrophages and Spike RBD coated magnetic beads, flow cytometry; assay type: cell-based; conditions: 37° C., 2 hours, read-out: SARS-COV-2 ADCP EC50
Description: The ability of the compounds to mediate antibody-dependent cellular phagocytosis (ADCP) was assessed using RAW 264.7 macrophages and Spike RBD coated magnetic beads (https://www.acrobiosystems.com/P3194-SARS-CoV-2-Spike-RBD-coupled-Magnetic-Beads.html). Spike RBD coated magnetic beads (3 ul per well) were added to each well of a round bottom 96-well plates. RAW264.7 cells (50,000 cells per well) were added to the beads. Next, the compounds were administered to predetermined final concentrations. The cell-bead mixtures were incubated at 37° C. for 2 hours. The mixtures were then analyzed by flow cytometry.

[2] = test system: live SARS-CoV-2 Virus (wildtype); assay: Neutralization of live SARS-CoV-2 virus, wildtype (Vero E6 cells, nucleoprotein ELISA); assay type: cell-based
[3] = biological target: T1, SARS-CoV-2 Spike A (wild-type) (Severe acute respiratory syndrome coronavirus 2, UniProt P0DTC2); assay: MSD ACE2 competition assay (inhibition of Spike binding with ACE2, ECL), A (wild-type); conditions: IC50 Wild Type, Wild Type Spike
T1 construct: purchased Meso Scale Diagnostics, LLC V-PLEX SARS-CoV-2 Panel 13 (ACE2) Kit / Panel 23 (ACE2) Kit

SARS-CoV-2 Spike protein = SARS-CoV-2 Spike protein (Severe acute respiratory syndrome coronavirus 2, UniProt P0DTC2); assay: Ternary binding of SARS-CoV-2 Spike protein (293T cells expressing Spike-GFP, IgG-AF647, flow cytometry); assay type: cell-based; conditions: 293T cells expressing Spike-GFP; IgG-AF647 10 μg/ml; repeat values/batches listed separately; read-out: SARS-CoV-2 Ternary binding EC50
native human IgG1 = assay: Ligand binding to native human IgG1 by Bio-Layer Interferometry (BLI); conditions: read-out: Octet Native IgG1 Binding KD
Description: The binding of exemplary compounds to native human IgG1 was measured by Bio-Layer Interferometry (BLI) using the ForteBio Octet® 96e platform (Fremont, CA). The binding assay was performed using the Protein L (ProL) Dip and Read Biosensors (ForteBio 18-5085) in a 96-well black flat bottom assay plate (Greiner Bio-One 655209; Monroe, NC) with the following steps: (1) 60 seconds of baseline; (2) 600 seconds of loading with 50 μg/ml of Native Human IgG1 (Abcam ab184886; Cambridge, UK); (3) 60 seconds of baseline; (4) 180 seconds of association with a dilution series of ligand in Assay Buffer (PBS (Gibco 10010; Grand Island, New York), 0.1% (w/v) BSA (American Bio AB01088-00100; Canton, MA), 0.05% (v/v) Tween 20 (Fisher BioReagents™ BP337-500; Pittsburgh, PA), pH 7.4), consisting of seven concentrations. The eighth tip in the column was run in Assay Buffer to serve as a reference sensor, the signal of which was subtracted from the sample sensors. (5) 180 seconds of dissociation in Assay Buffer.
The data was analyzed with the Octet® Data Analysis HT software. The processed data was globally fit to a 1:1 binding model for determination of the equilibrium dissociation constant (KD) and is shown in Table 7.

[4] = live virus neutralization, isolate Seattle WA (IITRI), Vero E6

Row | Compound | EC50 [1] | EC50 ([2]; read-out: Seattle WA (IITRI) EC50) [pM] | IC50 [3] | EC50 (SARS-CoV-2 Spike protein) | EC50 [2, 4] [pM] | Kd (native human IgG1) [pM]
1 | CC[C@H](C)[C@H](NC(=O)[C@H](CC(C)C)NC(=O)[C@H](CC(=O)O)NC(=O)[C@H](CO)NC(=O)[C@@H](NC(=O)[C@H](CCCNC(=N)N)NC(=O)[C@H](CCSC)NC(=O)[C@H](CO)NC(=O)[C@H](C)NC(=O)[C@H](CCC(=O)O)NC(=O)[C@H](C)NC(=O)[C@H](Cc1c[nH]cn1)NC(=O)CNC(=O)[C@H](CC(C)C)NC(=O)[C@H](CCC(=O)O)NC(=O)[C@H](CC(=O)O)NC(=O)[C@H](CC(C)C)NC(=O)[C@H](CC(C)C)NC(=O)[C@H](CCCNC(=N)N)NC(=O)[C@H](CCSC)NC(=O)[C@@H](NC(=O)[C@H](CCC(=O)O)NC(=O)[C@H](Cc1ccc(O)cc1)NC(=O)[C@@H](NC(=O)[C@H](CCCCN)NC(=O)[C@H](CCC(N)=O)NC(=O)[C@H](CC(C)C)NC(=O)[C@@H](NC(=O)[C@H](Cc1c[nH]c2ccccc12)NC(=O)[C@H](CCC(=O)O)NC(=O)[C@H](CCCCN)NC(=O)[C@H](CC(=O)O)NC(=O)CCOCCOCCOCCOCCOCCOCCOCCOCCNC(=O)CCOCCOCCOCCOCCOCCOCCOCCOCCC(=O)N[C@@H](CC(=O)O)C(=O)N[C@H]1CSSC[C@@H](C(=O)N[C@H](C(N)=O)[C@@H](C)O)NC(=O)[C@H](Cc2c[nH]c3ccccc23)NC(=O)[C@H](C(C)C)NC(=O)[C@H](CC(C)C)NC(=O)[C@H](CCC(=O)O)NC(=O)CNC(=O)[C@H](CC(C)C)NC(=O)[C@H](Cc2c[nH]cn2)NC(=O)[C@H](Cc2c[nH]c3ccccc23)NC(=O)[C@H](C)NC1=O)[C@@H](C)CC)[C@@H](C)CC)[C@@H](C)CC)C(C)C)C(=O)N[C@@H](Cc1ccc(O)cc1)C(=O)N[C@@H](CCC(=O)O)C(=O)N[C@@H](Cc1ccccc1)C(=O)N[C@@H](CCSC)C(=O)N[C@@H](CCCCN)C(=O)N[C@@H](CCCCN)C(=O)NCC(=O)N[C@@H](CC(=O)O)C(=O)N[C@@H](CCC(=O)O)C(=O)N[C@@H](CCCNC(=N)N)C(=O)N[C@@H](CC(C)C)C(=O)N[C@@H](CC(C)C)C(=O)N[C@@H](CCC(=O)O)C(=O)N[C@@H](CCC(=O)O)C(=O)N[C@@H](C)C(=O)N[C@@H](CCC(=O)O)C(=O)N[C@@H](CCCNC(=N)N)C(=O)N[C@@H](CC(C)C)C(=O)N[C@@H](CC(C)C)C(=O)N[C@@H](CCC(=O)O)C(=O)N[C@@H](CCC(=O)O)C(=O)N[C@H](C(=O)N[C@@H](CCC(=O)O)C(=O)N[C@@H](CCCNC(=N)N)C(N)=O)C(C)C [Compound 128] | 45 pM and 52 pM | 42 | – | – | – | –
2 | Ac-DCAWHLGELVWCTDKEWILQKIYEIMRLLDELGHAEASMRVSDLIYEFMKKGDERLLEEAERLLEEVER (disulfide 2-12) [Compound 120] | 1900 pM and 1800 pM | – | < 10000 pM and 1570 pM | 330 pM and 310 pM | 1 | –
3 | Ac-DKEWILQKIYEIMRLLDELGHAEASMRVSDLIYEFMKKGDERLLEEAERLLEEVERDCAWHLGELVWCT (disulfide 58-68) [Compound 110] | 1500 pM and 1200 pM | – | < 10000 pM | 140 pM and 130 pM | 5.8 | –
4 | Ac-DKEWILQKIYEIMRLLDELGHAEASMRVSDLIYEFMKKGPASPASPASPASDCAWHLGELVWCT (disulfide 53-63) [Compound 167] | 110 pM | – | 10800 pM | 240 pM | – | < 1000
